Experimental findings from patent US8227422B2, “Peptides and compounds that bind to a receptor” (Glaxosmithkline LLC, priority 1996, dated 2012) are described below.

Structures are written as SMILES. Like-named read-outs stand apart in the source and are kept apart here. Where a SMILES comes first, the peptide text is derived from it. A value given as a limit tells only on which side of the number the result lay.

In experiment [1] the target is T1, human TPO-R (transfected Ba/F3 cells) (Homo sapiens, UniProt P40238).
T1 construct: Murine IL-3 dependent Ba/F3 cells were transfected with full length human TPO-R; expressed in transfected cells; host or cells: murine Ba/F3 cells
T1 sequence (P40238 26-635): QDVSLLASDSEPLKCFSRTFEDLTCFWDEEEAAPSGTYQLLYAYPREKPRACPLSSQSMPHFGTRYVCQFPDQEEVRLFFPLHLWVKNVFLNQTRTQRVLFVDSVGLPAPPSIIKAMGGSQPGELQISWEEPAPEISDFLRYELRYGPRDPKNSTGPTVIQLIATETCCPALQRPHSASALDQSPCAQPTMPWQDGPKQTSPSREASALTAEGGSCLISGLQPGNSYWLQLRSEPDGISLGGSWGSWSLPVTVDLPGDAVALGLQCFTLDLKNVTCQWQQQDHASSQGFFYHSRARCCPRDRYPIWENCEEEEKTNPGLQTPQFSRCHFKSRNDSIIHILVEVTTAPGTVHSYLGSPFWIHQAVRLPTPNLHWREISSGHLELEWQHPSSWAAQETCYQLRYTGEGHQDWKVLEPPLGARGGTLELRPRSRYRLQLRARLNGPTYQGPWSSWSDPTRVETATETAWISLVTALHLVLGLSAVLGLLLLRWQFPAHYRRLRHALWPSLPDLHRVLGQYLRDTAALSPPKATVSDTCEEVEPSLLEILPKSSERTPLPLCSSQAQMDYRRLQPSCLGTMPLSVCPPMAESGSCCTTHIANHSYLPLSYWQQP
Description: Thrombopoietin dependent cell proliferation assay (MTT), TPO-R transfected Ba/F3 cells. It is filed as cell-based.

A further experiment has as its target T2, TPO-R (Homo sapiens, UniProt P40238).
T2 construct: made in house
T2 sequence (P40238 26-491 limits assumed): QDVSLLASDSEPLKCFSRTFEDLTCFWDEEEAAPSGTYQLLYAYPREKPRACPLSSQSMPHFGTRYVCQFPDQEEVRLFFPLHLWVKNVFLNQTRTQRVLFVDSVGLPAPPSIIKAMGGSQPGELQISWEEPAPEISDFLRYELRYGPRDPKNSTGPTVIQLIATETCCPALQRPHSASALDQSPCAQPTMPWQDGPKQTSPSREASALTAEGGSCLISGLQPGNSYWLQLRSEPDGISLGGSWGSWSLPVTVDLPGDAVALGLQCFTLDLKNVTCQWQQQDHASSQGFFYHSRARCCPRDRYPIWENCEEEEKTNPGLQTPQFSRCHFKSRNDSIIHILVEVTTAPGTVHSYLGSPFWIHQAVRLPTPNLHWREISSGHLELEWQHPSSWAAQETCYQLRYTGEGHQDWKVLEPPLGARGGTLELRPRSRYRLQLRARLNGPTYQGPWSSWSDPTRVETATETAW
Briefly: Competition binding assay (equilibrium binding ELISA, MBP-TPO156 tracer) on immobilized TPO-R. Particulars: read-out: IC50. For orientation: An ELISA detects its analyte on a solid surface through an enzyme-linked reagent.

The target of another experiment is T3, TPO receptor (Homo sapiens, UniProt P40238).
T3 sequence (P40238 26-635): T1 sequence (P40238 26-635)
Description: Microphysiometer assay: rate of acidification of extracellular medium on TPO receptor stimulation. It is filed as cell-based.

The mark [2] stands for this setting: Table 4, cyclized compounds, read-out: EC50 (nM) Proliferation.
[3] abbreviates: Table 4, cyclized compounds, microphysiometer, read-out: EC50 (nM) Microonys.

Description for TPO receptor: In this example cyclized compounds were subjected to three assays. […] Finally, a microphysiometer (Molecular Devices Corp.) assay was performed. […] The ranges for EC50 are symbolically indicated as for IC50 described above.

For orientation: IC50 means the concentration that gives 50% inhibition. For the compound `CC[C@H](C)[C@@H]1NC(=O)[C@H](Cc2c[nH]c3ccccc23)NC(=O)[C@H](CCC(=O)O)NC(=O)[C@H](CCCNC(=N)N)NC(=O)[C@H](CC(C)C)NC(=O)[C@H]([C@@H](C)O)NC(=O)[C@@H]2CCCN2C(=O)CNC(=O)[C@H](CC(=O)O)NC(=O)[C@H](C)NC(=O)C(c2ccccc2)SC[C@@H](C(N)=O)NC(=O)[C@H](Cc2ccccc2)NC(=O)[C@H](CO)NC1=O` (stereo partly drawn) (HELM PEPTIDE1{A.D.G.P.T.L.R.E.W.I.S.F.C.[am]}|CHEM1{[O=C(C(c1ccccc1)[*:2])[*:1]]}$PEPTIDE1,CHEM1,1:R1-1:R1|PEPTIDE1,CHEM1,13:R3-1:R2$$$V2.0), the EC50 in experiment [1] (setting [2]) is under 500 nM; on TPO receptor (setting [3]), under 200000 nM. On TPO-R (Table 4, cyclized compounds), the IC50 is at most 0.5 µM.
The corresponding values for `CC[C@H](C)[C@@H]1NC(=O)[C@H](Cc2c[nH]c3ccccc23)NC(=O)[C@H](CCC(=O)O)NC(=O)[C@H](CCCNC(=N)N)NC(=O)[C@H](CC(C)C)NC(=O)[C@H]([C@@H](C)O)NC(=O)[C@@H]2CCCN2C(=O)CNC(=O)[C@H](CC(=O)O)NC(=O)[C@H](C)NC(=O)CC[C@@H](C(N)=O)NC(=O)[C@H](Cc2ccccc2)NC(=O)[C@H](CO)NC1=O` (HELM PEPTIDE1{A.D.G.P.T.L.R.E.W.I.S.F.E.[am]}$PEPTIDE1,PEPTIDE1,1:R1-13:R3$$$V2.0) are under 200000 nM, under 200000 nM and at most 200 µM.
On the same counts, the results for `CC[C@H](C)[C@@H]1NC(=O)[C@H](Cc2c[nH]c3ccccc23)NC(=O)[C@H](CCC(=O)O)NC(=O)[C@H](CCCNC(=N)N)NC(=O)[C@H](CC(C)C)NC(=O)[C@H]([C@@H](C)O)NC(=O)[C@@H]2CCCN2C(=O)CNC(=O)[C@H](CC(=O)O)NC(=O)[C@H](C)NC(=O)C[S+]([O-])C[C@@H](C(N)=O)NC(=O)[C@H](Cc2ccccc2)NC(=O)[C@H](CO)NC1=O` (stereo partly drawn) (HELM PEPTIDE1{A.D.G.P.T.L.R.E.W.I.S.F.[O=C([C@H](C[S+]([O-])CC(=O)[*:3])N[*:1])[*:2]].[am]}$PEPTIDE1,PEPTIDE1,1:R1-13:R3$$$V2.0) are under 200000 nM, under 200000 nM and at most 200 µM.
With `CC[C@H](C)[C@H](NC(=O)[C@H](Cc1c[nH]c2ccccc12)NC(=O)[C@H](CCC(=O)O)NC(=O)[C@H](CCCNC(=N)N)NC(=O)[C@H](CC(C)C)NC(=O)[C@@H](NC(=O)[C@@H]1CCCN1C(=O)CNC(=O)[C@H](CC(=O)O)NC(=O)[C@H](C)NC(=O)[C@@H](N)CSSC[C@H](N)C(=O)N[C@@H](C)C(=O)N[C@@H](CC(=O)O)C(=O)NCC(=O)N1CCC[C@H]1C(=O)N[C@H](C(=O)N[C@@H](CC(C)C)C(=O)N[C@@H](CCCNC(=N)N)C(=O)N[C@@H](CCC(=O)O)C(=O)N[C@@H](Cc1c[nH]c2ccccc12)C(=O)N[C@H](C(=O)N[C@@H](CO)C(=O)N[C@@H](Cc1ccccc1)C(N)=O)[C@@H](C)CC)[C@@H](C)O)[C@@H](C)O)C(=O)N[C@@H](CO)C(=O)N[C@@H](Cc1ccccc1)C(N)=O` (HELM PEPTIDE1{C.A.D.G.P.T.L.R.E.W.I.S.F.[am]}|PEPTIDE2{C.A.D.G.P.T.L.R.E.W.I.S.F.[am]}$PEPTIDE1,PEPTIDE2,1:R3-1:R3$$$V2.0), the EC50 in experiment [1] (Table 7, dimer compounds, read-out: EC50 (nM) Prolif.) is under 500 nM; on TPO receptor (Table 7, dimer compounds, read-out: EC50 (nM) Microonys.), under 500 nM. Besides, the IC50 on TPO-R (Table 7, dimer compounds) is at most 0.5 µM.
As to `CC[C@H](C)[C@@H]1NC(=O)[C@H](Cc2c[nH]c3ccccc23)NC(=O)[C@H](CCC(=O)O)NC(=O)[C@H](CCCNC(=N)N)NC(=O)[C@H](CC(C)C)NC(=O)[C@H]([C@@H](C)O)NC(=O)[C@@H]2CCCN2C(=O)CNC(=O)[C@H](CC(=O)O)NC(=O)[C@H](C)NC(=O)[C@@H](N)CSSC[C@H](C(N)=O)NC(=O)[C@H](Cc2ccccc2)NC(=O)[C@H](CO)NC1=O` (HELM PEPTIDE1{C.A.D.G.P.T.L.R.E.W.I.S.F.[dC].[am]}$PEPTIDE1,PEPTIDE1,1:R3-14:R3$$$V2.0), the EC50 (in experiment [1] (setting [2]); on TPO receptor (setting [3])) was under 200000 nM each time. Besides, the IC50 on TPO-R (Table 4, cyclized compounds) was at most 0.5 µM.
With `CC[C@H](C)[C@@H]1NC(=O)[C@H](Cc2c[nH]c3ccccc23)NC(=O)[C@H](CCC(=O)O)NC(=O)[C@H](CCCNC(=N)N)NC(=O)[C@H](CC(C)C)NC(=O)[C@H]([C@@H](C)O)NC(=O)[C@@H]2CCCN2C(=O)CNC(=O)[C@H](CC(=O)O)NC(=O)[C@H](C)NC(=O)[C@H](N)C(C)(C)SSC[C@H](C(N)=O)NC(=O)[C@H](Cc2ccccc2)NC(=O)[C@H](CO)NC1=O` (HELM PEPTIDE1{[CC(C)(S[*:3])[C@@H](N)C(=O)[*:2]].A.D.G.P.T.L.R.E.W.I.S.F.[dC].[am]}$PEPTIDE1,PEPTIDE1,1:R3-14:R3$$$V2.0), the EC50 (in experiment [1] (setting [2]); at TPO receptor (setting [3])) was under 200000 nM each time. Further, the IC50 on TPO-R (Table 4, cyclized compounds) was at most 0.5 µM.
With `CC[C@H](C)[C@@H]1NC(=O)[C@H](Cc2c[nH]c3ccccc23)NC(=O)[C@H](CCC(=O)O)NC(=O)[C@H](CCCNC(=N)N)NC(=O)[C@H](CC(C)C)NC(=O)[C@H]([C@@H](C)O)NC(=O)[C@@H]2CCCN2C(=O)CNC(=O)[C@H](CC(=O)O)NC(=O)[C@H](C)NC(=O)[C@@H](N)CCSSCC[C@@H](C(N)=O)NC(=O)[C@H](Cc2ccccc2)NC(=O)[C@H](CO)NC1=O` (HELM PEPTIDE1{[N[C@@H](CCS[*:3])C(=O)[*:2]].A.D.G.P.T.L.R.E.W.I.S.F.[O=C([C@H](CCS[*:3])N[*:1])[*:2]].[am]}$PEPTIDE1,PEPTIDE1,1:R3-14:R3$$$V2.0), the EC50 (in experiment [1] (setting [2]); on TPO receptor (setting [3])) was under 200000 nM in each case. Besides, the IC50 on TPO-R (Table 4, cyclized compounds) was at most 0.5 µM.
On to `CC[C@H](C)[C@@H]1NC(=O)[C@H](Cc2c[nH]c3ccccc23)NC(=O)[C@H](CCC(=O)O)NC(=O)[C@H](CCCNC(=N)N)NC(=O)[C@H](CC(C)C)NC(=O)[C@H]([C@@H](C)O)NC(=O)[C@@H]2CCCN2C(=O)CNC(=O)[C@H](CC(=O)O)NC(=O)[C@H](C)NC(=O)CSCC[C@@H](C(N)=O)NC(=O)[C@H](Cc2ccccc2)NC(=O)[C@H](CO)NC1=O` (HELM PEPTIDE1{[O=C(C[*:3])[*:2]].A.D.G.P.T.L.R.E.W.I.S.F.[O=C([C@H](CCS[*:3])N[*:1])[*:2]].[am]}$PEPTIDE1,PEPTIDE1,1:R3-14:R3$$$V2.0), for which the EC50 (in experiment [1] (setting [2]); on TPO receptor (setting [3])) was under 200000 nM each time. In addition, the IC50 at TPO-R (Table 4, cyclized compounds) was at most 0.5 µM.
As for `CC[C@H](C)[C@@H]1NC(=O)[C@H](Cc2c[nH]c3ccccc23)NC(=O)[C@H](CCC(=O)O)NC(=O)[C@H](CCCNC(=N)N)NC(=O)[C@H](CC(C)C)NC(=O)[C@H]([C@@H](C)O)NC(=O)[C@@H]2CCCN2C(=O)CNC(=O)[C@H](CC(=O)O)NC(=O)[C@H](C)NC(=O)CSC(C)(C)[C@@H](C(N)=O)NC(=O)[C@H](Cc2ccccc2)NC(=O)[C@H](CO)NC1=O` (HELM PEPTIDE1{[O=C(C[*:3])[*:2]].A.D.G.P.T.L.R.E.W.I.S.F.[Pen].[am]}$PEPTIDE1,PEPTIDE1,1:R3-14:R3$$$V2.0), the EC50 (in experiment [1] (setting [2]); on TPO receptor (setting [3])) was under 200000 nM each time. Further, the 50% inhibitory concentration (IC50) on TPO-R (Table 4, cyclized compounds) was at most 200 µM.
Take `CC[C@H](C)[C@@H]1NC(=O)[C@H](Cc2c[nH]c3ccccc23)NC(=O)[C@H](CCC(=O)O)NC(=O)[C@H](CCCNC(=N)N)NC(=O)[C@H](CC(C)C)NC(=O)[C@H]([C@@H](C)O)NC(=O)[C@@H]2CCCN2C(=O)CNC(=O)[C@H](CC(=O)O)NC(=O)[C@H](C)NC(=O)[C@@H](N)C(C)(C)SSC[C@@H](C(N)=O)NC(=O)[C@H](Cc2ccccc2)NC(=O)[C@H](CO)NC1=O` (HELM PEPTIDE1{[Pen].A.D.G.P.T.L.R.E.W.I.S.F.C.[am]}$PEPTIDE1,PEPTIDE1,1:R3-14:R3$$$V2.0): the EC50 (in experiment [1] (setting [2]); at TPO receptor (setting [3])) was under 500 nM each time. Moreover, the IC50 on TPO-R (Table 4, cyclized compounds) is at most 0.5 µM.
